Measurements published in US20060211765A1, “Novel compounds” (ASTRAZENECA AB, priority 2003, published 2006).

Biological target: T1, rhCRTh2 (Homo sapiens, UniProt Q9Y5Y4)
T1 construct: expressed in transfected cells; host or cells: HEK cells (membrane preparation)
T1 sequence (Q9Y5Y4 1-395): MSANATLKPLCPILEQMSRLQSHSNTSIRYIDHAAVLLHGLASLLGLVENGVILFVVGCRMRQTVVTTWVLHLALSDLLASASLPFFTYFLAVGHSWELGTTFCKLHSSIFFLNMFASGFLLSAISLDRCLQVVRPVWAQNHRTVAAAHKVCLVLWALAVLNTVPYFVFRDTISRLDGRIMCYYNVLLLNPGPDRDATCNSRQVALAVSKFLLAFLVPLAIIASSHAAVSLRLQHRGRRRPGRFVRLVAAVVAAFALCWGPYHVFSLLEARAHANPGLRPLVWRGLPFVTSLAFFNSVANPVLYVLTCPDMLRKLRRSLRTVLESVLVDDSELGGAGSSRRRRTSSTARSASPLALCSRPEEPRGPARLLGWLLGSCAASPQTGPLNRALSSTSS
Assay: Ligand Binding Assay ([3H]PGD2 SPA on HEK cell membranes)
Settings: [3H]PGD2 displacement, HEK cell membranes expressing rhCRTh2/Gα16, SPA beads
Description: [^3H]PGD2 was purchased from Perkin Elmer Life Sciences with a specific activity of 100-210 Ci/mmol. All other chemicals were of analytical grade.
HEK cells expressing rhCRTh2/Gα16 were routinely maintained in DMEM containing 10% Foetal Bovine Serum (HyClone), 1 mg/ml geneticin, 2 mM L-glutamine and 1% non-essential amino acids. For the preparation of membranes, the adherent transfected HEKcells were grown to confluence in two layer tissue culture factories (Fisher, catalogue number TKT-170-070E). Maximal levels of receptor expression were induced by addition of […] sodium butyrate for the last 18 hours of culture. […] The final pellet was re-suspended in 4 ml of membrane homogenisation buffer per cell factory used and the protein content determined. […]
All assays were performed in Corning clear bottomed, white 96-well NBS plates (Fisher). […] (The optimum coating concentrations were determined for each batch of membranes) The beads were pelleted by centrifugation (800×g for 7 minutes at 4° C.), washed once with assay buffer (50 mM HEPES pH 7.4 containing 5 mM magnesium chloride) and finally re-suspended in assay buffer at a bead concentration of 10 mg/ml. […]

| IC50 [nM] | SMILES |
| --- | --- |
| 251 | CCS(=O)(=O)c1ccc(-c2cc(OC)ccc2OCC(=O)O)cc1 [Example 3, {[4′-(Ethylsulfonyl)-5-methoxybiphenyl-2-yl]oxy}acetic acid] |
| 79.4 | CCc1ccc(OCC(=O)O)c(-c2ccc(S(C)(=O)=O)cc2)c1 [Example 2, {[5-Ethyl-4′-(methylsulfonyl)biphenyl-2-yl]oxy}acetic acid] |
